The values that follow come from US5607937A, “Piperazides of substituted phenylalanine derivatives as thrombin inhibitors” (priority 1993, dated 1997).

Like-named read-outs stand apart in the source and are kept apart here.

Data set [1] addresses T1, thrombin (Bos taurus, UniProt P00735).
The next data set addresses glandular kallikrein (Sus scrofa, UniProt P00752). Description: inhibition of glandular kallikrein, dissociation constant Ki.
The target in data set [2] is T2, trypsin (Bos taurus, UniProt P00760).
T2 sequence (P00760 24-246): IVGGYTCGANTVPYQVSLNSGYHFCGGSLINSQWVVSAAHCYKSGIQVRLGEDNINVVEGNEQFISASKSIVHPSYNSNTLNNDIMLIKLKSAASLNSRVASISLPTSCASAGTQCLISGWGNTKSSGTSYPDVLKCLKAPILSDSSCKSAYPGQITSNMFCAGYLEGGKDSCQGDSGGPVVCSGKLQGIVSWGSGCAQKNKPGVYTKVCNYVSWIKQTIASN
Description: inhibition of trypsin, dissociation constant Ki. Format: biochemical. Also on record: thrombin and the related enzymes trypsin, plasmin, factor Xa, factor XIIa. The note with it: Table 1; read-out: Ki, Trypsin. The method, then: (§1) The biological activity of the compounds of the present invention was determined in vitro as well as in vivo.

In data set [3] the test system is coagulation in human plasma. Description: thrombin time (TT) in human plasma.
A further data set addresses plasma kallikrein (Homo sapiens, UniProt P03952). Description: inhibition of plasma kallikrein, dissociation constant Ki. The note with it: Table 1.
Data set [4] has as its system coagulation in human plasma. Nature of the data set: prothrombin time (PT, Quick value) in human plasma.
The target in a further data set is factor Xa (Bos taurus, UniProt P00743). Description: inhibition of factor Xa, dissociation constant Ki. The note with it: Table 1. Format: biochemical. The method, then: as §1
factor Xa, sequence (P00743 234-492 limits assumed): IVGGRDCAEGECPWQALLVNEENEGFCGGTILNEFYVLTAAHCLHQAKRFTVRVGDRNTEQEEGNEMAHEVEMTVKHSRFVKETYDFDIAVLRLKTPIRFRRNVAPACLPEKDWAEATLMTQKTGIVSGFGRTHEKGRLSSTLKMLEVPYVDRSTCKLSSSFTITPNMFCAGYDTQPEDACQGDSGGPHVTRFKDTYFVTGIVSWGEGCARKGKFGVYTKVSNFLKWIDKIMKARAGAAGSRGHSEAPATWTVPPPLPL
factor Xa, sequence (P00743 41-180 partner limits assumed): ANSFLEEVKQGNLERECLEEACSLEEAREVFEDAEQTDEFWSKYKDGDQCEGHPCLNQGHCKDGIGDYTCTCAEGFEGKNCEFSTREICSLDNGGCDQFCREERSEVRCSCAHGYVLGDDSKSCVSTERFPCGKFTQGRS
A further data set deals with tPA (Homo sapiens, UniProt P00750). Description: inhibition of tPA, dissociation constant Ki.
tPA, sequence (P00750 36-562): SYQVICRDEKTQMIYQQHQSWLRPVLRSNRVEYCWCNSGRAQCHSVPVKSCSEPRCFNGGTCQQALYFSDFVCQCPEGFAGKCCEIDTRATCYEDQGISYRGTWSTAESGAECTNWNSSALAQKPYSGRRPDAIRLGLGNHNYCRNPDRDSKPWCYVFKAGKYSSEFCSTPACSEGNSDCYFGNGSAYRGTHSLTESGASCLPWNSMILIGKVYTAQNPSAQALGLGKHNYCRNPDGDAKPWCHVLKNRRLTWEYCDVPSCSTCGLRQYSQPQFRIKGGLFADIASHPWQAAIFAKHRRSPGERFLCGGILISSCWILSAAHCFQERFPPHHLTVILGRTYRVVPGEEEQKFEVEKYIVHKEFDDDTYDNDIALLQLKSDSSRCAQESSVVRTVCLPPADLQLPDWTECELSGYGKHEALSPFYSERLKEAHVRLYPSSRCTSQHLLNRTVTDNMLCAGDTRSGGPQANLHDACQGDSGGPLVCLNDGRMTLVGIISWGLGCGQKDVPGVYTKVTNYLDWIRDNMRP
The target of another data set is plasmin (Homo sapiens, UniProt P00747). Description: inhibition of plasmin, dissociation constant Ki. The conditions noted are these: read-out: Ki, Plasmin; Table 1.
plasmin, sequence (P00747 581-810 limits assumed): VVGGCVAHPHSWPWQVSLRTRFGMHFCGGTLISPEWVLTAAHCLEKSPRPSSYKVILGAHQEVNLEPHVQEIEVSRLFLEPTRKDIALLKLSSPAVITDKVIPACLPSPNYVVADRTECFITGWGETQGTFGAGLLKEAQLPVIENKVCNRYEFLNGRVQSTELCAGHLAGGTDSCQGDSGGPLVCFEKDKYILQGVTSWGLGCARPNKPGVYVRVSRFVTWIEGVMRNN
plasmin, sequence (P00747 97-580 partner limits assumed): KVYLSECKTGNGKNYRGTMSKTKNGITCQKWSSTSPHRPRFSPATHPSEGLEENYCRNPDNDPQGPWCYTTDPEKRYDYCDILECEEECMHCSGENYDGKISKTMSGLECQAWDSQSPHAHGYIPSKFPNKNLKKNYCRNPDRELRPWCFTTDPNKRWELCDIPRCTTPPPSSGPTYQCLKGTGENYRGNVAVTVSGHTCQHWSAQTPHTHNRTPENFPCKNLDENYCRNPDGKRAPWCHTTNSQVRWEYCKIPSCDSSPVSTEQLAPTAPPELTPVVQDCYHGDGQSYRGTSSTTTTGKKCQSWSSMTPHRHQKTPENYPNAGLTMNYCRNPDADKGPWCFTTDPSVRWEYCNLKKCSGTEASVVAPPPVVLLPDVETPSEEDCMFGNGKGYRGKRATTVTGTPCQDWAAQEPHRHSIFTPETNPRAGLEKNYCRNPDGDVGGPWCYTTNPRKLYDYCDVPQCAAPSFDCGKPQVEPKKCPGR
The next data set deals with T3, factor XIIa (Homo sapiens, UniProt P00748).
T3 sequence (P00748 373-615 limits assumed): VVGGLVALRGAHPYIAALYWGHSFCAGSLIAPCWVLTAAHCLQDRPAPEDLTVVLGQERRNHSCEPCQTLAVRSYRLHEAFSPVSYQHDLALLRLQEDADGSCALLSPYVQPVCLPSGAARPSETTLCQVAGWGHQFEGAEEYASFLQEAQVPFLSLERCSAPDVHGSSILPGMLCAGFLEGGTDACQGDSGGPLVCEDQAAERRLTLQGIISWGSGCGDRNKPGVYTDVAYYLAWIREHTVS
Nature of the data set: inhibition of factor XIIa, dissociation constant Ki. The note with it: Table 1.

The subject of data set [5] is coagulation in human plasma. Description: activated partial thromboplastin time (aPTT) in human plasma.
Data set [6] addresses T2, trypsin. The note with it: literature; cited from earlier work.
Data set [7] concerns the target thrombin (Homo sapiens, UniProt P00734). The note with it: literature; cited from earlier work.
Data set [8] can be described thus: plasma concentration in rats after oral administration. The conditions noted are these: rat, oral. The data set is classed as in vivo.
Description: A physiological NaCl solution of the substance to be tested was submitted to high pressure liquid chromatography (HPLC) in order to determine its characteristic substance-specific retention time with the chosen test conditions.
The substance to be tested was diluted in vitro in rat plasma. This solution was also submitted to HPLC to see whether the characteristic peak of the substance once again appeared at the substance-specific retention time.
Blood samples were taken at time intervals of 15 minutes, from which plasma samples were prepared by centrifugation; those samples were also submitted to HPLC to see whether the characteristic peak of the substance appeared again at the substance-specific retention time.
After administration, blood samples were taken from the test animals at time intervals from 2 to maximally 360 minutes and the blood level of the compounds to be tested was determined by HPLC.
A short description of data set [9]: plasma concentration in rats after intravenous administration. The data set is classed as in vivo. The note with it: rat.
The test system of data set [10] is coagulation in rat plasma. Description: aPTT in rat plasma after rectal application. Format: in vivo. The conditions noted are these: rectal 5 mg/kg. The method, then: (§2) After rectal administration of the compounds to be tested, the anticoagulant effect was determined in the plasma of experimental animals.
The nature of data set [11]: concentration in rat plasma in the anticoagulant study after rectal application. The data set is classed as in vivo. The note with it: rectal 5 mg/kg.
Data set [12] relates to coagulation in rat plasma. Nature of the data set: thrombin time in rat plasma after rectal application. The note with it: rectal 5 mg/kg. Format: in vivo. The method, then:
as §2

The nature of a further data set: in vivo. The conditions noted are these: plasma, rat, intraduodenal 100 mg/kg.
Data set [13] addresses T1, thrombin. Nature of the data set: biochemical.
Data set [14] is described as follows: plasma concentration in rats after rectal administration. Format: in vivo. The conditions noted are these: plasma, rat, rectal 20 mg/kg.
Where [15] appears, read: read-out: Ki, Thrombin, Table 1.
Where [16] appears, read: read-out: Thrombin inhibition Ki, Table 7.
[17] abbreviates: read-out: Ki, Gland. kallikr., Table 1.

glandular kallikrein, sequence (P00752 8-246): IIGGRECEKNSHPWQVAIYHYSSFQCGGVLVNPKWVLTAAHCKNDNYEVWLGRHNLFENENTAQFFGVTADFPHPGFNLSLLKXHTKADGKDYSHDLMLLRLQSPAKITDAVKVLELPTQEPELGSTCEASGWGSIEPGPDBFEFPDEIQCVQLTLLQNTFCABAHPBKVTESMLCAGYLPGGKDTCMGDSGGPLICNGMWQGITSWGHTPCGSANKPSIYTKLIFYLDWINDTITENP
plasma kallikrein, sequence (P03952 391-638 limits assumed, species assumed): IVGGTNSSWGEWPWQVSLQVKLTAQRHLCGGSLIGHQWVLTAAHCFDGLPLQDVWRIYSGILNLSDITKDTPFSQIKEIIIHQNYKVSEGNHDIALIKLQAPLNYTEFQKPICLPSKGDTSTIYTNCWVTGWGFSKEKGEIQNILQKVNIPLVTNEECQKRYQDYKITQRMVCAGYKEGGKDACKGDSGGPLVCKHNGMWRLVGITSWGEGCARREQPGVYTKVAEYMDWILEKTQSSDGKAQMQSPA
plasma kallikrein, sequence (P03952 20-390 partner limits assumed, species assumed): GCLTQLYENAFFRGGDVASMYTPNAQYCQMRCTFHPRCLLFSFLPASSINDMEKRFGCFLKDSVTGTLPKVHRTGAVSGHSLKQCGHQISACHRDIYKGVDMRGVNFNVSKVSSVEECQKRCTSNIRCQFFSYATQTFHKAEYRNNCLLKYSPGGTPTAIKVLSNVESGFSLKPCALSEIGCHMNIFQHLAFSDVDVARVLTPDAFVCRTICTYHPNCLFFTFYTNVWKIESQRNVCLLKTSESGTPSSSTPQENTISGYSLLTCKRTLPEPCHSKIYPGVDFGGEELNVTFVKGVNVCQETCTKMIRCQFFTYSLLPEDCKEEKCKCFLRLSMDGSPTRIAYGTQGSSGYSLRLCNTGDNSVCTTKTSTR

Regarding `CC1(C)C2CCC1(CS(=O)(=O)N[C@@H](Cc1cccc(C(=N)N)c1)C(=O)N1CCN(S(C)(=O)=O)CC1)C(=O)C2` (single isomer, unassigned) [Compound 7], the Ki is 0.012 µM at thrombin [1] (setting [15]); 0.012 µM on thrombin [1] (setting [16]); greater than 1000 µM on glandular kallikrein (setting [17]); 0.22 µM on trypsin [2]; 25 µM at plasma kallikrein (read-out: Ki, Plasma kallikr.); 1.1 µM at factor Xa. Besides, the Ki came to 20 µM on tPA (read-out: Ki, tPA, Table 1); 14 µM at plasmin; 61 µM at factor XIIa (read-out: Ki, Factor XIIa). In [3], the “Concentr. to double the Thrombin time” value stood at 0.075 µmol/L. In addition, the “concentration to double the TT” value in [3] is “less than 10^-7 mol/1”. Further, the “Concentr. to double the Prothrombin time” value in data set [4] is 1.0 µmol/L. For the same compound, the “concentration to double the PT” value in data set [4] is recorded as no more than 1 μmol/1. In data set [5], the “Concentr. to double the aPTT” value came to 0.55 µmol/L. Besides, the “concentration to double the aPTT” value in data set [5] is on record as no more than 1 μmol/1.

With `CC1(C)C2CCC1(CS(=O)(=O)N[C@@H](Cc1cccc(C(=N)N)c1)C(=O)N1CCN(S(C)(=O)=O)CC1)C(=O)C2` (single isomer, unassigned) [Compound 8], the inhibition constant (Ki) at thrombin [1] (setting [15]) was 0.031 µM; at thrombin [1] (setting [16]), 0.031 µM; on glandular kallikrein (setting [17]) it was greater than 1000 µM; on trypsin [2], 0.44 µM; at plasma kallikrein (read-out: Ki, Plasma kallikr.) it was 130 µM; at factor Xa, 6.7 µM. In addition, the Ki on tPA (read-out: Ki, tPA, Table 1) came out at 82 µM; on plasmin, 29 µM; on factor XIIa (read-out: Ki, Factor XIIa) it was 70 µM. Also, the “Concentr. to double the Thrombin time” value in data set [3] is 0.13 µmol/L. Also, in [4], the “Concentr. to double the Prothrombin time” value turned out to be 2.0 µmol/L. Further, in [5], the “Concentr. to double the aPTT” value stood at 1.2 µmol/L.

Regarding `CC1CNc2c(cccc2S(=O)(=O)N[C@@H](CCCN=C(N)N)C(=O)N2CC[C@@H](C)C[C@@H]2C(=O)O)C1` (stereo partly drawn) [(2R,4R)-4-methyl-1-[Nα-(3-methyl-1,2,3,5-tetrahydro-8-quinolinesulfonyl)-L-arginine]-2-pipecoline-carboxylic acid], on trypsin [6], the “trypsin-inhibiting activity in words” value was “practically no trypsin-inhibiting activity”.

Regarding `CC(C)(C)OC(=O)NC(Cc1ccccc1)C(=O)N1CCCC1C(=O)NC(CCCNC(=N)N)B1OC2CC3CC(C3(C)C)C2(C)O1` [Boc-D-Phe-Pro-Boro-Arg-C10 H16], the “thrombin inhibition in words” value on thrombin [7] is “inhibited in a time-dependent reaction”. Besides, at trypsin [6], the “trypsin-inhibiting activity in words” value is recorded as “inhibited in a time-dependent reaction”.

As for `CN(C)C(=O)N1CCN(C(=O)[C@H](Cc2cccc(C(=N)N)c2)NS(=O)(=O)c2ccc3ccccc3c2)CC1` [Compound 6], the Ki was greater than 1000 µM on glandular kallikrein; 0.097 µM at trypsin [2]; 7.3 µM on plasma kallikrein (Ki, Plasma kallikr.); 0.004 µM on thrombin [13]; 15 µM on factor Xa; greater than 1000 µM at tPA. The same compound came in with a Ki on factor XIIa (Ki, Factor XIIa) of 51 µM. Also, the resorption in words result in data set [8] is given as “only slightly resorbed”. For the same compound, the concentration at 5 min in data set [9] (plasma, iv, i.v. 1 mg/kg, 5 min) was found to be 823 ng/mL. In data set [9] (plasma, iv, i.v. 1 mg/kg, 15 min), the concentration at 0.25 h is 289 ng/mL. Moreover, the concentration at 0.5 h in data set [9] (plasma, iv, i.v. 1 mg/kg, 30 min) was 194 ng/mL; in data set [11] (plasma, 30 min), 648 ng/mL; in the data set “in vivo” (30 min) it was 20500 ng/mL; in [14] (30 min) it was 1180 ng/mL. Besides, the concentration at 1 h in [9] (plasma, iv, i.v. 1 mg/kg, 60 min) was determined as 141 ng/mL; in [11] (plasma, 60 min) it was 362 ng/mL; in the data set “in vivo” (60 min) it was 6500 ng/mL; in [14] (60 min), 449 ng/mL. Moreover, the concentration at 2 h in [9] (plasma, iv, i.v. 1 mg/kg, 120 min) amounted to 86 ng/mL; in data set [11] (plasma, 120 min), 157 ng/mL; in “in vivo” (120 min), 3280 ng/mL; in data set [14] (120 min), 850 ng/mL. Further, the concentration at 3 h in [9] (plasma, iv, i.v. 1 mg/kg, 180 min) turned out to be 70 ng/mL; in data set [11] (plasma, 180 min), 83 ng/mL; in the data set “in vivo” (180 min) it was 2060 ng/mL; in data set [14] (180 min) it was 272 ng/mL. Besides, in [9] (i.v.), the elimination in words result is recorded as “eliminated at comparable rate”. Also, the “Clotting time, aPTT” value in data set [10] (0 min) worked out at 22.3 s; in data set [10] (30 min), 34.5 s; in data set [10] (60 min), 31.5 s; in data set [10] (120 min) it was 28.4 s; in data set [10] (180 min) it was 26 s. This compound gave a Concentration in plasma in data set [11] (0 min) of 0 ng/mL. In data set [3], the “Concentr. to double the Thrombin time” value came to 0.042 µmol/L. The “concentration to double the TT” value in data set [3] is listed as “less than 10^-7 mol/1”. In addition, the “Clotting time, Thrombin time” value in data set [12] (0 min) is 55.3 s; in [12] (30 min), greater than 300 s; in [12] (60 min), greater than 300 s; in data set [12] (120 min) it was greater than 300 s; in data set [12] (180 min) it was 213 s. In addition, the concentration at 4 h in the data set “in vivo” (240 min) is 1500 ng/mL; in data set [14] (240 min), 46 ng/mL. The compound also gave a concentration at 5 h in “in vivo” (300 min) of 1200 ng/mL. For the same compound, in “in vivo” (360 min), the concentration at 6 h is 1440 ng/mL. For the same compound, the “Concentr. to double the Prothrombin time” value in data set [4] was 0.65 µmol/L. The “concentration to double the PT” value in data set [4] is no more than 1 μmol/1. For the same compound, in [5], the “Concentr. to double the aPTT” value was 0.3 µmol/L. In addition, the “concentration to double the aPTT” value in [5] was no more than 1 μmol/1.

By Ki is commonly meant the equilibrium dissociation constant of an inhibitor or competing ligand from its target.
